From article PMC10653547, “Synergistic effect of two antimicrobial peptides, BP203 and MAP-0403 J-2 with conventional antibiotics against colistin-resistant Escherichia coli and Klebsiella pneumoniae clinical isolates” (PLOS ONE, 2023)
Like-named read-outs stand apart in the source and are kept apart here. No end group written: not given here.

Tests used:
[1] = system: E. coli ATCC 25922 and colistin-resistant E. coli clinical isolates
Procedure: (§1) The MICs of BP203 and MAP-0403 J-2 against clinically colistin-resistant E. coli and K. pneumoniae isolates were determined using the broth microdilution method, according to CLSI recommendations. Briefly, the peptides were subjected to serial dilution in cation-adjusted Mueller-Hinton broth (CAMHB) and added to a 96-well microtiter plate (Wuxi NEST Biotechnology, Wuxi, China). Subsequently, bacterial suspensions from freshly mid-log phase cultures were diluted to 10^6 CFU/mL with CAMHB, and introduced to each well containing the peptides.

[2] = system: K. pneumoniae ATCC BAA-1706 and colistin-resistant K. pneumoniae clinical isolates
Procedure: as §1

[3] = at 100 μM (~678 μg/mL); cited from earlier work
Description: The stability of AMPs is crucial for storage and applications. Temperature and pH are critical parameters impacting AMP stability. In addition, the good stability of AMPs to physiological salts and serum has been considered a desirable property for clinical applications. In this study, BP203 and MAP-0403 J-2 retained antibacterial activity under elevated temperatures, various pH conditions, and in the presence of physiological salts and serum environment. […] The hemolytic activity of BP203 at 150 μM (~300 μg/mL) wa ...

[4] = system: K. pneumoniae ATCC BAA-1706
Procedure: as §1
(§2) The antibacterial activity of BP203 and MAP-0403 J-2 was evaluated concerning their response to temperature, pH, serum, and salt ions using the MIC assay, following the previously mentioned procedure. The MIC values of peptides were determined against E. coli ATCC29522 and K. pneumoniae ATCC BAA-1706. […] For the pH stability assay, both peptides were incubated in buffers with different pH values (100 mM buffers: glycine-HCl buffer (pH 2.0), sodium acetate buffer (pH 4.0), sodium phosphate buffer (pH 6.0), Tris-HCl buffer (pH 8.0), and glycine-NaOH buffer (pH 10.0)) for 1 h at 37°C. […] For serum stability assay, both peptides were exposed to 25% and 50% fetal bovine serum (FBS) for 1 h at 37°C, followed by a heat activation step for 30 min at 60°C. Afterward, the peptide solutions were serially diluted and MIC was subsequently determined. For the salt stability assay, each peptide was treated in MHB supplemented with different salts at their physiological concentrations; NaCl (100, 150, and 200 mM), MgCl2 (0.5, 1 and 2 mM), and FeCl3 (1, 4 and 8 mM). The serial dilutions of peptides were incubated with tested strains for MIC testing. The MICs were observed after 20–24 h of incubation at 37°C.

E. coli ATCC 25922 [5] = system: E. coli ATCC 25922
Procedure: as §1, §2

E. coli ATCC 25922 [6] = system: E. coli ATCC 25922; remark: listed apart in the source
Procedure: as §1
as §2, with “For the salt stability assay, each peptide was treated in MHB supplemented with different salts at their physiological concentrations; NaCl (100, 150, and 200 mM), MgCl2 (0.5, 1 and 2 mM), and FeCl3 (1, 4 and 8 mM).” left out

[7] = 25% fetal bovine serum, 1 h at 37 °C
[8] = 50% fetal bovine serum, 1 h at 37 °C
[9] = pH 2, 100 mM glycine-HCl buffer, 1 h at 37 °C, neutralized
[10] = pH 4, 100 mM sodium acetate buffer, 1 h at 37 °C, neutralized
[11] = pH 6, 100 mM sodium phosphate buffer, 1 h at 37 °C, neutralized
[12] = pH 8, 100 mM Tris-HCl buffer, 1 h at 37 °C, neutralized
[13] = pH 10, 100 mM glycine-NaOH buffer, 1 h at 37 °C, neutralized
[14] = peptide incubated 1 h at 25 °C (control)

KWLRRPWRRWR-NH2 [MAP-0403 J-2]
MBC ([1]; E. coli ATCC 25922): 16 µg/mL
MIC ([1]; E. coli ATCC 25922): 16 µg/mL
MBC ([1]; EC-01): 32 µg/mL
MIC ([1]; EC-01): 16 µg/mL
MBC ([1]; EC-02): 32 µg/mL
MIC ([1]; EC-02): 32 µg/mL
MBC ([1]; EC-03): 16 µg/mL
MIC ([1]; EC-03): 8 µg/mL
MBC ([1]; EC-04): 8 µg/mL
MIC ([1]; EC-04): 8 µg/mL
MBC ([1]; EC-05): 64 µg/mL
MIC ([1]; EC-05): 32 µg/mL
MBC ([1]; EC-06): 32 µg/mL
MIC ([1]; EC-06): 32 µg/mL
MBC ([1]; EC-07): 32 µg/mL
MIC ([1]; EC-07): 32 µg/mL
MBC ([1]; EC-08): 64 µg/mL
MIC ([1]; EC-08): 32 µg/mL
MBC ([1]; EC-09): 32 µg/mL
MIC ([1]; EC-09): 8 µg/mL
MBC ([1]; EC-10): 64 µg/mL
MIC ([1]; EC-10): 32 µg/mL
MICs against colistin-resistant E. coli clinical isolates ([1]; range over ten isolates): 8 to 32 µg/mL
MBC ([2]; K. pneumoniae ATCC BAA-1706): 16 µg/mL
MIC ([2]; K. pneumoniae ATCC BAA-1706): 16 µg/mL
MBC ([2]; KP-01): >512 µg/mL
MIC ([2]; KP-01): >512 µg/mL
MBC ([2]; KP-02): 256 µg/mL
MIC ([2]; KP-02): 128 µg/mL
MBC ([2]; KP-03): >512 µg/mL
MIC ([2]; KP-03): >512 µg/mL
MBC ([2]; KP-04): >512 µg/mL
MIC ([2]; KP-04): >512 µg/mL
MBC ([2]; KP-05): 512 µg/mL
MIC ([2]; KP-05): 256 µg/mL
MBC ([2]; KP-06): >512 µg/mL
MIC ([2]; KP-06): >512 µg/mL
MBC ([2]; KP-07): >512 µg/mL
MIC ([2]; KP-07): >512 µg/mL
MBC ([2]; KP-08): >512 µg/mL
MIC ([2]; KP-08): >512 µg/mL
MBC ([2]; KP-09): >512 µg/mL
MIC ([2]; KP-09): >512 µg/mL
MBC ([2]; KP-10): >512 µg/mL
MIC ([2]; KP-10): >512 µg/mL
MIC against colistin-resistant K. pneumoniae clinical isolates ([2]; range over ten isolates): ≥ 512 µg/mL
Hemolytic activity [3]: 3.4%
MIC after FBS treatment ([4]; 0% FBS (control)): 16 µg/mL
MIC after FBS treatment [4, 7]: 16 µg/mL
MIC after FBS treatment [4, 8]: 16 µg/mL
MIC after pH treatment [4, 9]: 16 μg/mL
MIC after pH treatment [4, 10]: 16 μg/mL
MIC after pH treatment [4, 11]: 16 μg/mL
MIC after pH treatment ([4]; pH 7 (control)): 16 μg/mL
MIC after pH treatment [4, 12]: 16 μg/mL
MIC after pH treatment [4, 13]: 16 μg/mL
MIC after temperature treatment [4, 14]: 16 µg/mL
MIC after temperature treatment ([4]; peptide incubated 1 h at 37 °C): 16 µg/mL
MIC after temperature treatment ([4]; peptide incubated 1 h at 50 °C): 16 µg/mL
MIC after temperature treatment ([4]; peptide incubated 1 h at 70 °C): 16 µg/mL
MIC after temperature treatment ([4]; peptide incubated 1 h at 90 °C): 16 µg/mL
MIC after FBS treatment (E. coli ATCC 25922 [5]; 0% FBS (control)): 16 µg/mL
MIC after FBS treatment (E. coli ATCC 25922 [5]; [7]): 16 µg/mL
MIC after FBS treatment (E. coli ATCC 25922 [5]; [8]): 32 µg/mL
MIC after pH treatment (E. coli ATCC 25922 [5]; [9]): 16 μg/mL
MIC after pH treatment (E. coli ATCC 25922 [5]; [10]): 16 μg/mL
MIC after pH treatment (E. coli ATCC 25922 [5]; [11]): 16 μg/mL
MIC after pH treatment (E. coli ATCC 25922 [5]; pH 7 (control)): 16 μg/mL
MIC after pH treatment (E. coli ATCC 25922 [5]; [12]): 16 μg/mL
MIC after pH treatment (E. coli ATCC 25922 [5]; [13]): 16 μg/mL
MIC after temperature treatment (E. coli ATCC 25922 [5]; [14]): 16 µg/mL
MIC after temperature treatment (E. coli ATCC 25922 [5]; peptide incubated 1 h at 37 °C): 16 µg/mL
MIC after temperature treatment (E. coli ATCC 25922 [5]; peptide incubated 1 h at 50 °C): 16 µg/mL
MIC after temperature treatment (E. coli ATCC 25922 [5]; peptide incubated 1 h at 70 °C): 16 µg/mL
MIC after temperature treatment (E. coli ATCC 25922 [5]; peptide incubated 1 h at 90 °C): 16 µg/mL
MIC in the presence of physiological salts (E. coli ATCC 25922 [6]; Control, 0): 16 μg/mL
MIC in the presence of physiological salts (E. coli ATCC 25922 [6]; FeCl3 1 μM): 16 μg/mL
MIC in the presence of physiological salts (E. coli ATCC 25922 [6]; FeCl3 4 μM): 16 μg/mL
MIC in the presence of physiological salts (E. coli ATCC 25922 [6]; FeCl3 8 μM): 16 μg/mL
MIC in the presence of physiological salts (E. coli ATCC 25922 [6]; MgCl2 0.5 mM): 16 μg/mL
MIC in the presence of physiological salts (E. coli ATCC 25922 [6]; MgCl2 1 mM): 16 μg/mL
MIC in the presence of physiological salts (E. coli ATCC 25922 [6]; MgCl2 2 mM): 16 μg/mL
MIC in the presence of physiological salts (E. coli ATCC 25922 [6]; NaCl 100 mM): 32 μg/mL
MIC in the presence of physiological salts (E. coli ATCC 25922 [6]; NaCl 150 mM): 64 μg/mL
MIC in the presence of physiological salts (E. coli ATCC 25922 [6]; NaCl 200 mM): 64 μg/mL
